How the values were obtained:
[1] = test system: collagen induced arthritis (CIA); settings: cited from earlier work
lymphocyte = test: Single and multiple ascending dose studies in healthy subjects; format: in vivo
[2] = test system: experimental autoimmune encephalomyelitis (EAE); settings: up to day 25, when dosing was discontinued; cited from earlier work
chronic plaque psoriasis = settings: cited from earlier work

| SMILES | ankle diameters in CIA ([1]; prophylactic daily oral dose, day 17, similar to fingolimod or methotrexate) | histological parameters in knees and ankles of CIA rats ([1]; rat, in vivo) | lymphocyte lowering in healthy subjects (lymphocyte) | EAE disease onset and severity, prophylactic administration [2] | severity of chronic plaque psoriasis (chronic plaque psoriasis; chronic oral administration, phase 2) | associated adverse events (chronic plaque psoriasis; phase 2 psoriasis study) |
| --- | --- | --- | --- | --- | --- | --- |
| O=C(O)C[C@H]1CCc2c1[nH]c1ccc(OCc3ccc(C4CCCC4)c(C(F)(F)F)c3)cc21 [Compound 1, (R)-2-(7-(4-cyclopentyl-3-(trifluoromethyl)benzyloxy)-1,2,3,4-tetrahydrocyclopenta[b]indol-3-yl)acetic acid] | significant reduction in ankle diameters | Improvement in histological parameters | demonstrated the lymphocyte lowering capabilities | prevented the onset and severity of disease relative to vehicle | – | – |
| CCC/N=C1\S/C(=C\c2ccc(OC[C@H](O)CO)c(Cl)c2)C(=O)N1c1ccccc1C [ponesimod] | – | – | – | – | reduce the severity of chronic plaque psoriasis | dyspnea, elevated liver enzymes, bradycardia, headache and dizziness |

— patent publication US12097182B2, “Compounds and methods for treatment of inflammatory bowel disease with extra-intestinal manifestations” (Arena Pharmaceuticals, Inc., priority 2017, dated 2024)
